Common to all, as to assay type: in vivo
In assay [1] the test system is Echinocloa crus-galli. As to the kind of experiment: greenhouse test, pre-emergence treatment, ECHCG. From the text: (§1) The culture containers used were plastic flowerpots containing loamy sand with approximately 3.0% of humus as the substrate. The seeds of the test plants were sown separately for each species.
(§2) For the pre-emergence treatment, the active ingredients, which had been suspended or emulsified in water, were applied directly after sowing by means of finely distributing nozzles. The containers were irrigated gently to promote germination and growth and subsequently covered with transparent plastic hoods until the plants had rooted. This cover caused uniform germination of the test plants, unless this had been impaired by the active ingredients.
(§3) Depending on the species, the plants were kept at 10-25° C. or 20-35° C., respectively.
(§4) The test period extended over 2 to 4 weeks. During this time, the plants were tended, and their response to the individual treatments was evaluated.
(§5) Evaluation was carried out using a scale from 0 to 100. 100 means no emergence of the plants, or complete destruction of at least the aerial moieties, and 0 means no damage, or normal course of growth. A good herbicidal activity is given at values of at least 70 and a very good herbicidal activity is given at values of at least 85.
(§6) The plants used in the greenhouse experiments were of the following species: […]

The test system of another assay is Avena fatua. As to the kind of experiment: greenhouse test, post-emergence treatment, AVEFA.
Description: as §1
(§7) For the post-emergence treatment, the test plants were first grown to a height of 3 to 15 cm, depending on the plant habit, and only then treated with the active ingredients which had been suspended or emulsified in water. For this purpose, the test plants were either sown directly and grown in the same containers, or they were first grown separately as seedlings and transplanted into the test containers a few days prior to treatment.
as §3, §4, §5, §6

In a further assay the test system is Alopecurus myosuroides. As to the kind of experiment: greenhouse test, post-emergence treatment, ALOMY. Particulars: post-emergence.
Description: as §1, §7, §3, §4, §5, §6

Assay [2] relates to Echinocloa crus-galli. As to the kind of experiment: greenhouse test, post-emergence treatment, ECHCG. Particulars: post-emergence.
Description: as §1, §7, §3, §4, §5, §6

The subject of the next assay is Apera spica-venti. As to the kind of experiment: greenhouse test, pre-emergence treatment, APESV.
Description: as §1, §2, §3, §4, §5, §6

The structures appear in SMILES notation.

For the compound `CCc1nc(C)c(-c2nc(C3CC3)ncc2-c2ccccc2Br)o1` [Ex. 290], the herbicidal activity result with Echinocloa crus-galli [1] (2000 g/ha), with Avena fatua (2000 g/ha), with Alopecurus myosuroides (2000 g/ha), in the assay on Echinocloa crus-galli [2] (2000 g/ha) and in the assay with Apera spica-venti (2000 g/ha) was “very good (a very good herbicidal activity is given at values of at least 85)” each time.
Regarding `Clc1ccccc1-c1cnc(C2CC2)nc1/C=C/c1ccco1` [Ex. 94], the herbicidal activity result with Avena fatua (2000 g/ha), with Alopecurus myosuroides (2000 g/ha) and in the assay on Apera spica-venti (2000 g/ha) was “very good (a very good herbicidal activity is given at values of at least 85)” in each case.
As for `Clc1ccccc1-c1cnc(C2CC2)nc1-c1cncs1` [Ex. 245], the herbicidal activity result in the assay with Echinocloa crus-galli [1] (1000 g/ha) is on record as “good (A good herbicidal activity is given at values of at least 70)”; in the assay on Avena fatua (1000 g/ha), “very good (a very good herbicidal activity is given at values of at least 85)”; with Alopecurus myosuroides (1000 g/ha), “very good (a very good herbicidal activity is given at values of at least 85)”; with Echinocloa crus-galli [2] (1000 g/ha) it was “very good (a very good herbicidal activity is given at values of at least 85)”; with Apera spica-venti (1000 g/ha), “very good (a very good herbicidal activity is given at values of at least 85)”.
For `Cc1oc(C(C)C)nc1-c1nc(C2CC2)ncc1-c1ccccc1Cl` [Ex. 283], the herbicidal activity result is listed as “good (A good herbicidal activity is given at values of at least 70)” with Echinocloa crus-galli [1] (2000 g/ha); “very good (a very good herbicidal activity is given at values of at least 85)” in the assay on Avena fatua (2000 g/ha); “very good (a very good herbicidal activity is given at values of at least 85)” in the assay on Alopecurus myosuroides (2000 g/ha); “very good (a very good herbicidal activity is given at values of at least 85)” with Echinocloa crus-galli [2] (2000 g/ha); “very good (a very good herbicidal activity is given at values of at least 85)” in the assay on Apera spica-venti (2000 g/ha).
Turning to `Cc1cc(-c2nc(C3CC3)ncc2-c2ccccc2Br)c(C)o1` [Ex. 237], the herbicidal activity entry in the assay with Echinocloa crus-galli [1] (2000 g/ha), in the assay on Avena fatua (2000 g/ha), in the assay with Alopecurus myosuroides (2000 g/ha), in the assay with Echinocloa crus-galli [2] (2000 g/ha) and with Apera spica-venti (2000 g/ha) was “very good (a very good herbicidal activity is given at values of at least 85)” in each case.
With `Cc1nc(C)c(-c2nc(C3CC3)ncc2-c2ccccc2Cl)o1` [Ex. 243], the herbicidal activity entry with Echinocloa crus-galli [1] (1000 g/ha), in the assay on Avena fatua (1000 g/ha), with Alopecurus myosuroides (1000 g/ha), with Echinocloa crus-galli [2] (1000 g/ha) and in the assay with Apera spica-venti (1000 g/ha) was “very good (a very good herbicidal activity is given at values of at least 85)” in each case.
For the compound `Fc1ccc(-c2cnc(C3CC3)nc2-c2cc3cc(Cl)ccc3o2)c(Cl)c1` [Ex. 44], the herbicidal activity result in the assay with Avena fatua (1000 g/ha) and in the assay on Echinocloa crus-galli [2] (1000 g/ha) was “very good (a very good herbicidal activity is given at values of at least 85)” in each case.
`COCc1nc(C2CC2)ncc1-c1ccccc1Cl` [Ex. 22]: the herbicidal activity entry with Avena fatua (1000 g/ha), in the assay with Alopecurus myosuroides (1000 g/ha), with Echinocloa crus-galli [2] (1000 g/ha) and in the assay on Apera spica-venti (1000 g/ha) was “very good (a very good herbicidal activity is given at values of at least 85)” in each case.
On to `Fc1ccc(-c2cnc(C3CC3)nc2-c2ccco2)c(Cl)c1` [Ex. 54], for which the herbicidal activity entry in the assay on Avena fatua (1000 g/ha), in the assay on Echinocloa crus-galli [2] (1000 g/ha) and in the assay with Apera spica-venti (1000 g/ha) was “very good (a very good herbicidal activity is given at values of at least 85)” each time.
In the case of `OC(c1nc(C2CC2)ncc1-c1ccccc1Cl)C1(O)CCC1` (centres unmarked) [Ex. 154], the herbicidal activity entry in the assay with Echinocloa crus-galli [1] (2000 g/ha), in the assay on Avena fatua (2000 g/ha), with Alopecurus myosuroides (2000 g/ha), in the assay with Echinocloa crus-galli [2] (2000 g/ha) and in the assay on Apera spica-venti (2000 g/ha) was “very good (a very good herbicidal activity is given at values of at least 85)” throughout.
As for `COC(=O)C(C)c1nc(C2CC2)ncc1-c1cc(F)ccc1Cl` (centres unmarked) [Ex. 159], the herbicidal activity result is “good (A good herbicidal activity is given at values of at least 70)” with Echinocloa crus-galli [1] (2000 g/ha), “very good (a very good herbicidal activity is given at values of at least 85)” with Avena fatua (2000 g/ha), “very good (a very good herbicidal activity is given at values of at least 85)” with Alopecurus myosuroides (2000 g/ha) and “good (A good herbicidal activity is given at values of at least 70)” in the assay on Apera spica-venti (2000 g/ha).
For `Clc1ccccc1-c1cnc(C2CC2)nc1C=C1CCC1` [Ex. 71], the herbicidal activity entry in the assay with Echinocloa crus-galli [1] (2000 g/ha) was “very good (a very good herbicidal activity is given at values of at least 85)”; with Avena fatua (2000 g/ha) it was “very good (a very good herbicidal activity is given at values of at least 85)”; in the assay with Alopecurus myosuroides (2000 g/ha), “very good (a very good herbicidal activity is given at values of at least 85)”; with Echinocloa crus-galli [2] (2000 g/ha) it was “good (A good herbicidal activity is given at values of at least 70)”; with Apera spica-venti (2000 g/ha), “very good (a very good herbicidal activity is given at values of at least 85)”.
Turning to `COC(=O)Cc1nc(C2CC2)ncc1-c1ccccc1Br` [Ex. 67], the herbicidal activity entry is listed as “very good (a very good herbicidal activity is given at values of at least 85)” in the assay on Avena fatua (2000 g/ha), “very good (a very good herbicidal activity is given at values of at least 85)” in the assay with Alopecurus myosuroides (2000 g/ha), “good (A good herbicidal activity is given at values of at least 70)” in the assay with Echinocloa crus-galli [2] (2000 g/ha) and “very good (a very good herbicidal activity is given at values of at least 85)” in the assay on Apera spica-venti (2000 g/ha).
As to `Brc1ccccc1-c1cnc(C2CC2)nc1-c1cnco1` [Ex. 261], the herbicidal activity result in the assay on Echinocloa crus-galli [1] (1000 g/ha), in the assay on Avena fatua (1000 g/ha), in the assay with Alopecurus myosuroides (1000 g/ha), in the assay with Echinocloa crus-galli [2] (1000 g/ha) and with Apera spica-venti (1000 g/ha) was “very good (a very good herbicidal activity is given at values of at least 85)” throughout.
Take `Brc1ccccc1-c1cnc(C2CC2)nc1-c1ccoc1` [Ex. 40]: the herbicidal activity result with Echinocloa crus-galli [1] (2000 g/ha), in the assay with Avena fatua (2000 g/ha), in the assay on Alopecurus myosuroides (2000 g/ha) and in the assay on Apera spica-venti (2000 g/ha) was “very good (a very good herbicidal activity is given at values of at least 85)” throughout.
As for `CCOP(=O)(OCC)C(OS(C)(=O)=O)c1nc(C2CC2)ncc1-c1ccccc1Cl` (centres unmarked) [Ex. 89], the herbicidal activity result is on record as “good (A good herbicidal activity is given at values of at least 70)” in the assay on Avena fatua (2000 g/ha), “very good (a very good herbicidal activity is given at values of at least 85)” in the assay on Alopecurus myosuroides (2000 g/ha) and “good (A good herbicidal activity is given at values of at least 70)” with Apera spica-venti (2000 g/ha).
Consider `Clc1ccccc1-c1cnc(C2CC2)nc1C=C1CCCC1` [Ex. 128], for which the herbicidal activity entry in the assay with Avena fatua (2000 g/ha) is listed as “very good (a very good herbicidal activity is given at values of at least 85)”; in the assay on Alopecurus myosuroides (2000 g/ha) it was “good (A good herbicidal activity is given at values of at least 70)”; with Echinocloa crus-galli [2] (2000 g/ha) it was “very good (a very good herbicidal activity is given at values of at least 85)”; in the assay on Apera spica-venti (2000 g/ha), “very good (a very good herbicidal activity is given at values of at least 85)”.
